Measurements: patent US12595251B2, “Amidines and amidine analogs for the treatment of bacterial infections and potentiation antibiotics” (GEORGIA STATE UNIVERSITY RESEARCH FOUNDATION, INC., priority 2018, dated 2026)
Values after ≈ are worked out from the molar mass of the structure shown.

Assays:
MRSA [1] = assay: MIC of compounds against MRSA (OD600, 48 h); type: cell-based; details: Staphylococcus aureus; for MIC: MIC = 90% growth inhibition, compound alone, 48 h; for inhibition at 6 µM: read-out: Growth inhibition of MRSA at 6 μM, compound alone at 6 μM, NA=no activity; for inhibition at 12 µM: compound alone at 12 μM, NA=no activity, read-out: Growth inhibition of MRSA at 12 μM
Experimental: Bacteria were then cultured with varying concentration of the compounds shown below for 48 hours, and then bacterial density was measured based on OD600. The minimum inhibitory concentration (MIC, 90% growth inhibition) was calculated for each compound, as shown in Table 4 (NA=no activity; --=not measured).

MRSA [2] = assay: Sensitization of MRSA to erythromycin (sensitization fold from IC90); type: cell-based, Staphylococcus aureus; details: for SF (MRSA) at 12 μM: compound at 12 μM; for SF (MRSA) at 12 μM / SF (MRSA) at 25 μM: NA=no activity; for SF (MRSA) at 25 μM: compound at 25 μM; for SF (MRSA) at 6 μM: compound at 6 μM
Experimental: MRSA bacteria were cultured in nutrient broth at 37° C. overnight prior to treatment. […] Bacterial density was measured based on OD600.

B. subtilis = assay: Sensitization of B. subtilis to erythromycin (sensitization fold from IC90, OD600, 20 h); type: cell-based, Bacillus subtilis; details: erythromycin; for SF (B. subtilis) at 6 μM: compound at 6 μM; for SF (B. subtilis) at 6 μM / SF (B. subtilis) at 12 μM: NA=no activity; for SF (B. subtilis) at 12 μM: compound at 12 μM
Experimental: (§1) E. coli bacteria were cultured in Miller's broth at 37° C. overnight prior to treatment. B. subtilis bacteria were cultured in nutrient broth at 37° C. overnight prior to treatment. […] Bacterial density was measured based on OD600.

E. coli = assay: Sensitization of E. coli to erythromycin (sensitization fold from IC90, OD600, 20 h); type: cell-based, Escherichia coli; details: erythromycin, NA=no activity; for SF (E. coli) at 12.5 μM: compound at 12.5 μM; for SF (E. coli) at 25 μM: compound at 25 μM
Experimental: as §1

[3] = test system: NDM-1 over-expressing E. coli; assay: microbe, parasite or virus in culture; type: cell-based, Escherichia coli; details: for MIC: Escherichia coli, antibiotic alone, read-out: MIC of AB only; for FIC / MIC of AB with Compound C (5 μg/ml): antibiotic plus Compound C 5 μg/ml
M. smegmatis = assay: Antibacterial activity against M. smegmatis (MIC, OD600, 48 h); type: cell-based, Mycobacterium smegmatis; details: Mycolicibacterium smegmatis, MIC = 90% growth inhibition, 7H9 media, NA=no activity
wild-type E. coli = assay: Sensitization of wild-type E. coli toward antibiotics (MIC of antibiotic with/without sensitizer); type: cell-based, Escherichia coli; details: wild-type E. coli
Experimental: Bacteria were cultured with the antibiotic at various concentrations in the presence or absence of bacterial sensitizer for 24 hours at 37° C. Bacterial growth density was determined by measuring OD600 (absorbance measured at a wavelength of 600 nm). […]
The formula for calculating FIC is shown below: […]

## Cc1cc(COc2ccc(C(=N)N)cc2F)cc(COc2ccc(C(=N)N)cc2F)c1 [drawing 846]
MRSA [1]
  MIC: 12 µM
  inhibition at 6 µM: 20%

## Cc1cc(COc2cccc(C(=N)N)c2)cc(COc2cccc(C(=N)N)c2)c1 [drawing 845]
MRSA [1]
  MIC: 25 µM
MRSA [1]; compound alone at 12.5 μM, read-out: Growth inhibition of MRSA at 12.5 μM
  inhibition at 12.5 µM: 30%
MRSA [2]; compound at 12.5 μM
  SF (MRSA) at 12.5 μM: 4-fold at 12.5 μM

## COc1cc(C(=N)N)ccc1OCc1cccc(COc2ccc(C(=N)N)cc2OC)c1F [drawing 731]
B. subtilis
  SF (B. subtilis) at 6 μM: 4-fold at 6 μM

## Cc1cc(CCc2ccc(C(=N)N)cc2)cc(CCc2ccc(C(=N)N)cc2)c1 [drawing 734]
B. subtilis
  SF (B. subtilis) at 6 μM: 32-fold at 6 μM
E. coli
  SF (E. coli) at 12.5 μM: 8 fold
  SF (E. coli) at 25 μM: 32 fold

## CC(C)(C)c1cc(COc2ccc(C(=N)N)cc2F)cc(COc2ccc(C(=N)N)cc2F)c1 [drawing 742]
B. subtilis; compound at 3 μM
  SF (B. subtilis) at 3 μM: 2 fold
B. subtilis
  SF (B. subtilis) at 6 μM: 8 fold
E. coli; compound at 6 μM
  SF (E. coli) at 6 μM: 4 fold
E. coli; compound at 12 μM
  SF (E. coli) at 12 μM: 32 fold

## Cc1cc(OCc2ccc(C(=N)N)cc2)cc(OCc2ccc(C(=N)N)cc2)c1 [drawing 736]
B. subtilis
  SF (B. subtilis) at 12 μM: 32-fold at 12 μM
E. coli
  SF (E. coli) at 25 μM: 32-fold at 25 μM

## Cc1cc(COc2ccc(C3=NCCCN3)cc2)cc(COc2ccc(C3=NCCCN3)cc2)c1 [drawing 842]
MRSA [2]
  SF (MRSA) at 12 μM: 4 fold
  SF (MRSA) at 25 μM: 8 fold

## COc1cc(C(=N)N)ccc1OCc1cc(COc2ccc(C(=N)N)cc2OC)cc(C(C)(C)C)c1 [drawing 843]
MRSA [1]
  MIC: 12 µM

## CC(C)(C)c1cc(COc2ccc(C(=N)N)cc2F)cc(COc2ccc(C(=N)N)cc2F)c1 [drawing 844]
MRSA [1]
  inhibition at 6 µM: 60%

## Cc1ccc(COc2ccc(C(=N)N)cc2)cc1COc1ccc(C(=N)N)cc1 [drawing 746]
B. subtilis
  SF (B. subtilis) at 6 μM: 16 fold
  SF (B. subtilis) at 12 μM: 32 fold
E. coli
  SF (E. coli) at 12.5 μM: 4 fold
  SF (E. coli) at 25 μM: 32 fold

## COc1cc(C(=N)N)ccc1OCc1cc(C)cc(COc2ccc(C(=N)N)cc2OC)c1 [drawing 836]
MRSA [1]
  MIC: 25 µM
  inhibition at 12 µM: 10%
MRSA [2]
  SF (MRSA) at 6 μM: 2-4 fold
  SF (MRSA) at 12 μM: 8-16 fold

## CC[C@H]1OC(=O)[C@H](C)[C@@H](O[C@H]2C[C@@](C)(OC)[C@@H](O)[C@H](C)O2)[C@H](C)[C@@H](O[C@@H]2O[C@H](C)C[C@H](N(C)C)[C@H]2O)[C@](C)(OC)C[C@@H](C)C(=O)[C@H](C)[C@@H](O)[C@]1(C)O [Clarithromycin, clarithromycin]
[3]
  MIC: 24 µg/mL
  FIC: 0.12
  MIC of AB with Compound C (5 μg/ml): 0.4 µg/mL

## Fc1c(COc2ccc(C3=NCCN3)cc2)cccc1COc1ccc(C2=NCCN2)cc1 [drawing 811]
M. smegmatis
  MIC: 25 µM (≈ 11.1 µg/mL)

## CCC[C@@H]1C[C@@H](C(=O)N[C@@H]([C@H]2O[C@H](SC)[C@H](O)[C@@H](O)[C@H]2O)[C@H](C)Cl)N(C)C1 [Clindamycin, clindamycin]
wild-type E. coli; Escherichia coli, 24 h, antibiotic alone, read-out: MIC of AB only
  MIC: 250 µg/mL
wild-type E. coli; antibiotic plus Compound C 5 μg/ml
  MIC of AB with Compound C (5 μg/ml): 4 µg/mL
wild-type E. coli; fractional inhibitory concentration, antibiotic plus Compound C 5 μg/ml
  FIC: 0.12
[3]
  MIC: 250 µg/mL
  FIC: 0.12
  MIC of AB with Compound C (5 μg/ml): 4 µg/mL

## CC(C)NC(=N)c1ccc(OCc2cccc(COc3ccc(C(=N)NC(C)C)cc3F)c2F)c(F)c1 [drawing 840]
MRSA [1]
  inhibition at 12 µM: 30%
MRSA [2]
  SF (MRSA) at 6 μM: 8 fold
  SF (MRSA) at 12 μM: 8-16 fold

## CCCNC(=N)c1ccc(COc2cc(C)cc(OCc3ccc(C(=N)NCCC)cc3)c2)cc1 [drawing 841]
MRSA [1]; read-out: Growth inhibition of MRSA at 25 μM, compound alone at 25 μM, NA=no activity
  inhibition at 25 µM: 30%
MRSA [2]
  SF (MRSA) at 12 μM: 8 fold
  SF (MRSA) at 25 μM: 8-16 fold

## Cc1cc(CCc2ccc(C(=N)N)cc2)cc(CCc2ccc(C(=N)N)cc2)c1 [drawing 829]
M. smegmatis
  MIC: 6 to 12 µM (≈ 2.31 to 4.61 µg/mL)

## N=C(N)c1ccc(OCCCCCCOc2ccc(C(=N)N)cc2)cc1 [drawing 825]
M. smegmatis
  MIC: 6 µM (≈ 2.13 µg/mL)

## COc1cc(C(=N)N)ccc1OCc1cc(C)cc(COc2ccc(C(=N)N)cc2OC)c1 [drawing 816]
M. smegmatis
  MIC: 25 µM (≈ 11.2 µg/mL)
